Test results: ChEMBL document CHEMBL3352669, “Tetrahydrobenzo[h][1,6]naphthyridine-6-chlorotacrine hybrids as a new family of anti-Alzheimer agents targeting β-amyloid, tau, and cholinesterase pathologies” (Eur J Med Chem, 2014); call rule not given here

What was measured:
[1] = target: Microtubule-associated protein tau (Homo sapiens) (UniProt P10636); assay: Inhibition of aggregation of tau protein (unknown origin) expressed in Escherichia coli BL21 (DE3) assessed as amyloid fibril formation at 10 uM after 24 hrs by thioflavin S fluorescence method
Microtubule-associated protein tau (Homo sapiens), sequence (P10636 whole entry): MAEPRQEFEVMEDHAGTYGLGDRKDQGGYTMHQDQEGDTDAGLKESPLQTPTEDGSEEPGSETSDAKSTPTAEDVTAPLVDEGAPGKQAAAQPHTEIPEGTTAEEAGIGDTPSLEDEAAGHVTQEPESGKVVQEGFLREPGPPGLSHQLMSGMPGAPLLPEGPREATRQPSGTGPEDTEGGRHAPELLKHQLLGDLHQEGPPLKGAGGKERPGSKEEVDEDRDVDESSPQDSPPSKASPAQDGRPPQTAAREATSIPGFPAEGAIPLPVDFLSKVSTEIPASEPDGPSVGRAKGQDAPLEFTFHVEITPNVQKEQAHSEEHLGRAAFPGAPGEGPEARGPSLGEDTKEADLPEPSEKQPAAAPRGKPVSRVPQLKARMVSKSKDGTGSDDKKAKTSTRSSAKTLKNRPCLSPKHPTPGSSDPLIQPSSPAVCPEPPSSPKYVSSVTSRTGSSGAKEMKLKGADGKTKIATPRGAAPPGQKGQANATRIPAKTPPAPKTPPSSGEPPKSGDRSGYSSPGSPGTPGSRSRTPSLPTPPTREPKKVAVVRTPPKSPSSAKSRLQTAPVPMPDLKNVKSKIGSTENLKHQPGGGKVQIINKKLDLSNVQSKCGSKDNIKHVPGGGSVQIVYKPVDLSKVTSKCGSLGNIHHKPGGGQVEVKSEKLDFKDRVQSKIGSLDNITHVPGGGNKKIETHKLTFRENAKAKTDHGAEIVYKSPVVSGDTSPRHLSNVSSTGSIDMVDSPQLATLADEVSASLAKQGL

Acetylcholinesterase = Acetylcholinesterase (Homo sapiens, UniProt P22303); assay: Inhibition of human recombinant AChE using acetylthiocholine iodide as substrate by spectrophotometric analysis
Acetylcholinesterase, sequence (P22303 whole entry): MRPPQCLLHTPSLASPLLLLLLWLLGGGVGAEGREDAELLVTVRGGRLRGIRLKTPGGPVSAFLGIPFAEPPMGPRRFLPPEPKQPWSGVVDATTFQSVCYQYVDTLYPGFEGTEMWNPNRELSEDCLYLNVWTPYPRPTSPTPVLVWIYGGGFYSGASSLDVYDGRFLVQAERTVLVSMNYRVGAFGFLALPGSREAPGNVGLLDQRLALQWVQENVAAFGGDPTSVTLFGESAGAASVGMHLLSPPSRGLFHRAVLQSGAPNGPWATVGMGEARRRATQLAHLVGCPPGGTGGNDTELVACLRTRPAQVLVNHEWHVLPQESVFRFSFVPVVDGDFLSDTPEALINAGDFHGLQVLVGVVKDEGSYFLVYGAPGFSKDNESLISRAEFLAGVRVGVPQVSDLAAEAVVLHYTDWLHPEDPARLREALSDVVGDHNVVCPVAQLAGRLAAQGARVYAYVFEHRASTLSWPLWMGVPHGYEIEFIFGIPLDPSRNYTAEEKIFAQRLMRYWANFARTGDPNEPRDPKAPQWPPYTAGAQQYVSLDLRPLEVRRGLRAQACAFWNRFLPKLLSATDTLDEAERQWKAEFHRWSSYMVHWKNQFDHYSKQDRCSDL

Cholinesterase = Cholinesterase (Homo sapiens, UniProt P06276); assay: Inhibition of human recombinant BChE using butyrylthiocholine iodide as substrate by spectrophotometric analysis
Cholinesterase, sequence (P06276 whole entry): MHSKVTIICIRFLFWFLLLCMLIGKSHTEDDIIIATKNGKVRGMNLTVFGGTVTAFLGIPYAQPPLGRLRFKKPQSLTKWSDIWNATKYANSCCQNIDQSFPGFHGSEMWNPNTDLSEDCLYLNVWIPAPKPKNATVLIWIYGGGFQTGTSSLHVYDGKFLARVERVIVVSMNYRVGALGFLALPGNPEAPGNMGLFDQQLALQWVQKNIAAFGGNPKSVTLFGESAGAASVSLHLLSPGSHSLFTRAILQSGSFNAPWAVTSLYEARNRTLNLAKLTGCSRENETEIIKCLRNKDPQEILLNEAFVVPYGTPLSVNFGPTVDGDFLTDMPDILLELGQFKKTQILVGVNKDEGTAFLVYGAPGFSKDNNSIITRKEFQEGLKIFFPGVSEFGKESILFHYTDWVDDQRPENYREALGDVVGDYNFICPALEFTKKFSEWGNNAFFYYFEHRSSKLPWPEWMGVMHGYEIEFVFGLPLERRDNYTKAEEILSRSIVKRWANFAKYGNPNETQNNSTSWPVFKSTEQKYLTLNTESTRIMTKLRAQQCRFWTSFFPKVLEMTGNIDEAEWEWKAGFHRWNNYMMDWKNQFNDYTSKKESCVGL

[2] = target: Amyloid-beta precursor protein (Homo sapiens) (UniProt P05067); assay: Inhibition of aggregation of amyloid beta-42 (unknown origin) expressed in Escherichia coli BL21 (DE3) assessed as amyloid fibril formation at 10 uM after 24 hrs by thioflavin S fluorescence method
Amyloid-beta precursor protein (Homo sapiens), sequence (P05067 whole entry): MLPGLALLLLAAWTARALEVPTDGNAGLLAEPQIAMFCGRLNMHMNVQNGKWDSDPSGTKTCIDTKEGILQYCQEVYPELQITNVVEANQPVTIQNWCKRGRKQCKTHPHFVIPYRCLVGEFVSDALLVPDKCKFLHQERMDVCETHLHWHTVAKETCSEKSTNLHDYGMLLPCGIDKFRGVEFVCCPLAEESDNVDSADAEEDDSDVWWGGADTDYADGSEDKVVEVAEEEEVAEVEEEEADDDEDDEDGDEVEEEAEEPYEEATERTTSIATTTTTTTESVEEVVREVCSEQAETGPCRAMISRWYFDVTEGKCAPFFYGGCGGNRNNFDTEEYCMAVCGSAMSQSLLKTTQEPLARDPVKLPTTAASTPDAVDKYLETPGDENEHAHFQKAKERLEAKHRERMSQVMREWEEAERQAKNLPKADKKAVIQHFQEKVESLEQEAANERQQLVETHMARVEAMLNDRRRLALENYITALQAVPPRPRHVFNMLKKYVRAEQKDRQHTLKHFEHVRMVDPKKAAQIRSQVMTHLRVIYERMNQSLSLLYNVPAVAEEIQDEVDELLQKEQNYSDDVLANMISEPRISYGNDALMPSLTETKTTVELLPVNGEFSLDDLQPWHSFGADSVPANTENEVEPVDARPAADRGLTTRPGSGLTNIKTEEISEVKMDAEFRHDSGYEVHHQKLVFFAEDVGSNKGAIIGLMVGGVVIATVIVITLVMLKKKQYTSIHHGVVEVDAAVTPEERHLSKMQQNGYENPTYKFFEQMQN

Structure (SMILES) | inhibition [1] [%] | IC50 (Acetylcholinesterase; read-out: IC50) [nM] | IC50 (Cholinesterase; read-out: IC50) [nM] | inhibition [2] [%] | IC50 (Acetylcholinesterase) | IC50 (Cholinesterase)
O=C(NCCCCNc1c2c(nc3cc(Cl)ccc13)CCCC2)c1ccc2nc(-c3ccc(Cl)cc3)c3c(c2c1)NCCC3 | 58.9 | 14.2 | 205 | 55.8 | – | –
CCOC(=O)c1ccc2nc(-c3ccc(Cl)cc3)c3c(c2c1)OCCC3 | 27.9 | – | – | 41.8 | Not Active | Not Active
O=C(NCCCCCNc1c2c(nc3cc(Cl)ccc13)CCCC2)c1ccc2nc(-c3ccc(Cl)cc3)c3c(c2c1)NCCC3 | 57.7 | 14.2 | 337 | 54.3 | – | –
Nc1c2c(nc3cc(Cl)ccc13)CCCC2 | 1.4 | – | – | 11 | – | –
O=C(NCCCNc1c2c(nc3cc(Cl)ccc13)CCCC2)c1ccc2nc(-c3ccc(Cl)cc3)c3c(c2c1)NCCC3 | 40.7 | 0.006 | 120 | 52.5 | – | –
O=C(NCCCCCCCCNc1c2c(nc3cc(Cl)ccc13)CCCC2)c1ccc2nc(-c3ccc(Cl)cc3)c3c(c2c1)OCCC3 | 37.8 | 19.3 | 223 | 54.6 | – | –
O=C(NCCCCCCCCNc1c2c(nc3cc(Cl)ccc13)CCCC2)c1ccc2nc(-c3ccc(Cl)cc3)c3c(c2c1)NCCC3 | 68.7 | – | – | 77.5 | – | –
